For data set [1], the system named is Plasmodium berghei. The data set can be described thus: Antiplasmodial activity against Plasmodium berghei ANKA infected in po dosed Swiss mouse administered at 2 hrs post infection and measured on day 4 by Peter's 4-day test. In kind it is functional.
In data set [2] the test system is Plasmodium falciparum. As to the kind of experiment: Bactericidal activity against Plasmodium falciparum 3D7A at 10 times IC50. In kind it is functional, organism-based.
In data set [3] the test system is Plasmodium falciparum. As to the kind of experiment: microbe, parasite or virus in culture. The settings on record: 3D7, 72 h.
Description: Antimalarial activity against Plasmodium falciparum 3D7 infected in human red blood cells after 72 hrs by DAPI-staining based assay
Data set [4] in a line: Intrinsic clearance in mouse liver microsomes in presence of NADPH by UPLC-MS analysis. In kind it is ADME, Microsome.
Data set [5] is described as follows: Kinetic solubility of compound at pH 6.5 by nephelometry. The format is physicochemical. The following applies: buffer, read-out: Kinetic_solubility.
A short description of data set [6]: Kinetic solubility of compound at pH 2 by nephelometry. In kind it is physicochemical. The settings on record: buffer, read-out: Kinetic_solubility.
A short description of data set [7]: Half life in human liver microsomes in presence of NADPH by UPLC-MS analysis. In kind it is ADME, Microsome.
A short description of data set [8]: Intrinsic clearance in human liver microsomes assessed per mg of protein in presence of NADPH by UPLC-MS analysis. The following applies: read-out: CLH. In kind it is ADME, Microsome.
The nature of data set [9]: Half life in mouse liver microsomes in presence of NADPH by UPLC-MS analysis. The format is ADME, Microsome.
Data set [10] deals with Plasmodium falciparum. The data set can be described thus: Antimalarial activity against Plasmodium falciparum 3D7 infected in human red blood cells at 40 uM after 72 hrs by DAPI-staining based assay relative to control. In kind it is functional.

In brackets after ≈: the same amount, converted by molar mass. Activity calls are given as the source filed them. The rule behind the calls is not given here.

`C[C@H]1[C@H](OC(=O)CCC(=O)O)O[C@@H]2O[C@@]3(C)CC[C@H]4[C@H](C)CC[C@@H]1[C@@]24OO3` [ARTESUNATE]: the ED50 in data set [1] was 1.37 mg/kg/day. The outcome in data set [2] was Active.

Compound `CC(C)Oc1nncc(-c2cnnc(SCCN(C)C)n2)n1` gave an IC50 in [3] of 81 nM. In data set [3], `COCCSc1nncc(-c2cnnc(SCCN(C)C)n2)n1` registered an IC50 of 260 nM. Same read-out and setting: the figure for `CC(CN(C)C)Oc1nncc(-c2cnnc(OC(C)CN(C)C)n2)n1` (configuration not stated) is 12000 nM; for `CSc1nncc(-c2cnnc(OC(C)CN(C)C)n2)n1` (configuration not stated) it is 32 nM. The compound `CCCCc1nncc(-c2cnnc(OCCN(C)C)n2)n1` yielded an IC50 in data set [3] of 30 nM. Besides, the values for the microsomal CLint in data set [4] and in [8] were 109 µL/min/mg and 25 µL/min/mg, respectively. Also, the solubility kinetic in [5] and in data set [6] was 25 µg/mL (≈ 82.4 µM) throughout. In addition, the half-life in data set [7] came to 69 min; in data set [9] it was 16 min.

`C[Si](C)(C)CCOc1nncc(-c2cnnc(OCC[Si](C)(C)C)n2)n1` registered an IC50 in data set [3] of 720 nM. With `COc1nncc(-c2cnnc(SCCN(C)C)n2)n1`, in data set [3], the IC50 came to 850 nM. Same read-out and setting: the figure for `CC#CCOc1nncc(-c2cnnc(OCC#CC)n2)n1` is 1000 nM; for `FC(F)(F)CCOc1nncc(-c2cnnc(OCCC(F)(F)F)n2)n1` it is 93 nM; for `CC(C)Oc1nncc(-c2cnnc(OC(C)C)n2)n1` it is 2000 nM.

In the case of `C#CCOc1nncc(-c2cnnc(SC)n2)n1`, half-maximal inhibition in [3] (IC50) was put at 130 nM.

The compound `COCCOc1nncc(-c2cnnc(OCCOC)n2)n1` gave an Activity in data set [10] of 100%. Consider `CCN(CC)CCCC(C)Nc1ccnc2cc(Cl)ccc12` (configuration not stated) [CHLOROQUINE], for which, in data set [2], the result was Active. For `C#CCSc1nncc(-c2cnnc(SC)n2)n1`, the IC50 in data set [3] amounted to 32 nM. Same read-out and setting: to `CCCOc1nncc(-c2cnnc(OCCC)n2)n1` belongs 110 nM; to `c1nnc(OC2CC2)nc1-c1cnnc(OC2CC2)n1`, 890 nM; to `CSc1nncc(-c2cnnc(SCCCN=[N+]=[N-])n2)n1`, 4.4 nM.

On to `CC(C)Oc1nncc(-c2cnnc(OCCN(C)C)n2)n1`, for which the IC50 in [3] was found to be 440 nM. Take `FC(F)(F)COc1nncc(-c2cnnc(OCC(F)(F)F)n2)n1`: in data set [3], the IC50 is 420 nM. On the same count and under the same terms, the figure for `Cc1ncsc1CCOc1nncc(-c2cnnc(OCCc3scnc3C)n2)n1` is 500 nM. `CCc1nncc(-c2cnnc(SCCN(C)C)n2)n1`: the IC50 in [3] came to 120 nM. Moreover, the figures for the microsomal CLint in data set [4] and in data set [8] were 118 µL/min/mg and 9 µL/min/mg, respectively. Further, the solubility kinetic is 25 µg/mL (≈ 85.8 µM) in [5] and 50 µg/mL (≈ 172 µM) in data set [6]. The half-life in [7] came to 199 min; in data set [9], 15 min. In the case of `CSc1nncc(-c2cnnc(SCCN(C)C)n2)n1`, the solubility kinetic in data set [5] and in data set [6] was 6.3 µg/mL (≈ 20.4 µM) in each case. `CC(C)Sc1nncc(-c2cnnc(SCCN(C)C)n2)n1`: in data set [3], the IC50 is 210 nM. Compound `CN(C)CCOc1nncc(-c2cnnc(OCCC(F)(F)F)n2)n1` showed an IC50 in data set [3] of 54 nM. Moreover, the microsomal CLint turned out to be 33 µL/min/mg in data set [4] and 7 µL/min/mg in [8]. Also, the solubility kinetic in data set [5] and in data set [6] was 50 µg/mL (≈ 139 µM) throughout. For the same compound, the half-life was found to be 232 min in data set [7] and 53 min in [9]. In data set [3], `CCCCc1nncc(-c2cnnc(SCCN(C)C)n2)n1` yielded an IC50 of 9 nM. Also, the microsomal CLint in data set [4] worked out at 330 µL/min/mg; in data set [8], 56 µL/min/mg. Besides, the solubility kinetic in data set [5] stood at 25 µg/mL (≈ 78.3 µM); in [6] it was 50 µg/mL (≈ 157 µM). Further, the half-life was 31 min in data set [7] and 5 min in data set [9].

As for `CCCOc1nncc(-c2cnnc(SCCN(C)C)n2)n1`, in [3], half-maximal inhibition (IC50) required 11 nM. Still for that read-out and setting: to `CN(C)CCOc1nncc(-c2cnnc(OCCN(C)C)n2)n1` belongs 8600 nM.

Turning to `CCCCc1nncc(-c2cnnc(CCCC)n2)n1`, inhibition in [3] was half-maximal at 340 nM (IC50). The same measure, in the same setting: to `[N-]=[N+]=NCCCSc1nncc(-c2cnnc(SCCCN=[N+]=[N-])n2)n1` belongs 31 nM. The same measure, in the same setting: to `CC(C)Sc1nncc(-c2cnnc(OCCN(C)C)n2)n1` belongs 12 nM.

The record behind these values is ChEMBL document CHEMBL4808169, “Discovery of Potent and Fast-Acting Antimalarial Bis-1,2,4-triazines” (J Med Chem, 2021).
